These results are taken from US4588725A, “2-piperazinyl-quinazoline derivatives and pharmaceutical compositions containing them” (Sandoz Ltd., priority 1982, dated 1986).

The target of experiment [1] is T1, 3H-spiperone binding sites (Bos taurus, UniProt P20288).
T1 construct: fresh calf brain striatal tissue was homogenized; from tissue; host or cells: calf brain striatum, membranes
The experiment is described as follows: 3H-spiperone binding in calf brain striatal tissue. The conditions noted are these: for IC50: calf striatal membranes, 0.1 nM 3H-spiperone, 5×10^-7 M cinanserin, pH 7.7, 40 min room temperature, read-out: Receptor binding IC50 3H-spiperone; for effect in the 3H-spiperone binding test compared with Clozapine: in words, versus Clozapine. The procedure:
The compounds of the invention bind further on ^3 H-spiperone binding sites in the brain [modified method of J. Leysen et al., Biochem. Pharmac. […] The test was performed as follows: fresh calf brain striatal tissue was homogenized in the 25 fold volume of tris buffer (pH 7.4, 50 mM, 120 mM sodium chloride) and centrifuged. The pellets were suspended in the 22 fold volume of tris buffer, incubated for 15 minutes at 37° C. and centrifuged. The pellets were suspended in the 300 fold volume of tris buffer. […] After incubation for 40 minutes at room temperature, the assay mixtures were rapidly filtered through Whatman GF/B filter, the filters washed twice with 5 ml of ice cold tris buffer and scintillation-counted.

In experiment [2] the test system is locomotion. The experiment is described as follows: inhibition of locomotion in mice. Type of experiment: in vivo, mice (male, OF-1). The conditions noted are these: Mus musculus, po, minimum dose with significant inhibition, p.o., 1 hour after administration, read-out: Locomotor inhibition EDmin. The protocol: In particular, the compounds of formula I are useful as neuroleptic agents in the treatment of e.g. psychotic disorders such as schizophrenia, as indicated in standard tests, e.g. by an inhibition of locomotion in mice. In this test groups of 3 male mice (18-24 g, OF-1, Sandoz Basle) received 3.2, 10, 32, 100 and […]. of the test drug. 1 hour after drug administration the mice were observed individually and their locomotion compared with that of control. The locomotion of the animals was observed and the EDmin (the minimum dose at which significant inhibition was observed) determined.

Experiment [3] concerns sleep/wake cycle (sleep phase II, paradoxical sleep). Briefly: sleep/wake cycle in rats. Type of experiment: in vivo. The procedure: Furthermore, the compounds on administration of 2-20 mg/kg p.o. to rats increase the sleep phase II and decrease the paradoxical sleep in the sleep/wake cycle carried out in accordance with the principles of H. Kleinlogel et al., European J. Pharmacol. 33, 159-163 (1975). […]

Experiment [4] has as its system blood pressure or heart rate. Briefly: blood pressure / heart rate in anaesthetized normotonic rats. Type of experiment: in vivo, female normotonic rats (Sprague-Dawley). The conditions noted are these: Rattus norvegicus, iv, cumulative i.v. doses, by interpolation, read-out: ED75 (dose required to reduce the blood pressure or the heart rate to 75% of pretreatment values). The procedure: In another test female normotonic rats (200-350 g, Sprague-Dawley, Suddeutsche Tierfarm, Tuttlingen, FRG) were anaesthetized with urethane (1.5-1.75 g/kg i.p. in 2 portions) and a tracheal cannula was inserted. Blood pressure and heart rate were recorded from the carotid artery by conventional methods. Test drugs were administered by the jugular or the femoral vein. Body temperature was maintained at 34° C. by means of a temperature regulator (Alfos MK-4) triggered by a thermistor on the animal. After adaptation, increasing doses of the test drug were injected i.v. to give the following cumulative doses: 3, 13, 43, 143, 343 and 1443 μg/kg. ED 75% is the dose required to reduce the blood pressure or the heart rate to 75% of pretreatment values. It was obtained through interpolation. The ED75 of the Example 3a compound is 524 μg/kg i.v.

In experiment [5] the target is α1-receptors. The experiment is described as follows: 3H-Prazosin binding assay for α1-receptors in calf brain cortex tissue. As to conditions: calf brain cortex membranes, 0.3 nM 3H-Prazosin, pH 7.7, 40 min room temperature; read-out: IC50 (inhibition of specific 3H-Prazosin binding). The procedure: The compounds of the invention are furthermore useful as anti-hypertensive agents, as indicated in standard tests, for example in the ^3 H-Prazosin binding assay for α1 -receptors [modified method of Greengrass P., et al., Eur. J. Pharmac. 55, 323-326 (1979)]. The test was performed as follows:
Fresh calf brain cortex tissue is homogenized in a 20 fold volume of Tris-HCl buffer (50 mM, pH 7.7), using a Polytron PT 20, and centrifuged at 30,000×g for 25 min. The pellets are resuspended in a 13 fold volume of the same buffer, incubated for 15 min at 37° C., and recentrifuged at 50,000×g for 11 min. The pellets of this centrifugation are frozen at -20° C. and resuspended in a 60 fold volume of the same buffer as above before use for the binding experiment. The composition of the assay mixtures (total volume=2 ml) is as follows: 50 mM Tris-HCl pH 7.7, membranes corresponding to 30 mg of original tissue weight, and 0.3 nM ^3 H-Prazosin. The assays for the definition of nonspecific binding additionally contain phentolamine at a concentration of 10 μM. To assess the potency of drugs in inhibiting specific ^3 H-Prazosin binding (difference between total and nonspecific binding), the test compounds are added to give 5 to 9 different concentrations between 1 nM and 10 μM, each in duplicate. […] The radioactivity of the filters is estimated by scintillation counting.

T1 sequence (P20288 whole entry): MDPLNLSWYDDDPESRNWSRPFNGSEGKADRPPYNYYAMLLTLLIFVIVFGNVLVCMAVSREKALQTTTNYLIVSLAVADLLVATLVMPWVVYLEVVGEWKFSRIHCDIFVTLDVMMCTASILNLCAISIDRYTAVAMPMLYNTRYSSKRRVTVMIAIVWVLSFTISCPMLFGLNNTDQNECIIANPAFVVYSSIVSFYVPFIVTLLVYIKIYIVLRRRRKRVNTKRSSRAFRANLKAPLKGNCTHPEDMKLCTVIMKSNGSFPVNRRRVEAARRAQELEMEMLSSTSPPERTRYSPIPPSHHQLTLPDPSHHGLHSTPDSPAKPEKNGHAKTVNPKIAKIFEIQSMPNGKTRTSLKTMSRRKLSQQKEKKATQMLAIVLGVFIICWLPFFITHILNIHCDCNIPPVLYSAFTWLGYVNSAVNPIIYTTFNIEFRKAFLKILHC

In general, IC50 refers to the concentration that inhibits the measured activity by half. In the case of `O=C(CCCN1CCN(c2ncc3ccccc3n2)CC1)c1ccc(F)cc1` [Example 1, 4-[4-(Quinazolin-2-yl)-1-piperazinyl]-1-(4-fluorophenyl)-1-butanone], in experiment [1], the IC50 is 0.344 µM and the “effect in the 3H-spiperone binding test compared with Clozapine” value was “stronger effects in the ^3 H-spiperone binding test than Clozapine”. Besides, in experiment [2], the minimal effective dose was determined as 3.3 mg/kg. In experiment [3] (3.2 mg/kg po), the “Sleep phase II” value is recorded as 171 % of control and the paradoxical sleep is 92 % of control.
Take `Cc1nc(N2CCN(CCCC(=O)c3ccc(F)cc3)CC2)nc2ccccc12` [Example 3a]: the ED75 in experiment [4] was found to be 0.524 mg/kg. For the same compound, in experiment [5], the IC50 came out at 0.0035 µM.
Take `CN1CCN(C2=Nc3cc(Cl)ccc3Nc3ccccc32)CC1` [clozapine, reference compound]: in experiment [2], the minimal effective dose turned out to be 3.2 mg/kg. Further, in experiment [3] (10 mg/kg po), the “Sleep phase II” value is reported as 483 % of control and the paradoxical sleep is 26 % of control.
`O=C(CCCN1CCN(c2nc(-c3ccccc3)c3ccccc3n2)CC1)c1ccc(F)cc1` [Example 3e]: in experiment [1], the IC50 is 0.342 µM and the “effect in the 3H-spiperone binding test compared with Clozapine” value is given as “stronger effects in the ^3 H-spiperone binding test than Clozapine”. In addition, in experiment [2], the minimal effective dose is less than 3.2 mg/kg. In experiment [3] (10 mg/kg po), the “Sleep phase II” value is 607 % of control and the paradoxical sleep was 9 % of control.
